# How the values were obtained:
# Assay type in all cases: functional
# Penicillium chrysogenum [1] = assay: Antimicrobial activity against Penicillium chrysogenum
# Aspergillus flavus [2] = assay: Antimicrobial activity against Aspergillus flavus assessed as activity index
# Aspergillus niger [3] = assay: Antimicrobial activity against Aspergillus niger
# Staphylococcus aureus [4] = assay: Antimicrobial activity against Staphylococcus aureus
# [5] = test system: Agrobacterium tumefaciens; assay: Antimicrobial activity against Bacillus tumefaciens
# Staphylococcus aureus [6] = assay: Antimicrobial activity against Staphylococcus aureus assessed as activity index
# Aspergillus niger [7] = assay: Antimicrobial activity against Aspergillus niger assessed as activity index
# Klebsiella pneumoniae [8] = assay: Antimicrobial activity against Klebsiella pneumoniae
# Penicillium chrysogenum [9] = assay: Antimicrobial activity against Penicillium chrysogenum assessed as activity index
# Aspergillus flavus [10] = assay: Antimicrobial activity against Aspergillus flavus
# [11] = test system: Agrobacterium tumefaciens; assay: Antimicrobial activity against Bacillus tumefaciens assessed as activity index
# Klebsiella pneumoniae [12] = assay: Antimicrobial activity against Klebsiella pneumoniae assessed as activity index
SMILES,Diameter of inhibition zone (Penicillium chrysogenum [1]) [mm],Activity (Aspergillus flavus [2]),Diameter of inhibition zone (Aspergillus niger [3]) [mm],Diameter of inhibition zone (Staphylococcus aureus [4]) [mm],Diameter of inhibition zone [5] [mm],Activity (Staphylococcus aureus [6]),Activity (Aspergillus niger [7]),Diameter of inhibition zone (Klebsiella pneumoniae [8]) [mm],Activity (Penicillium chrysogenum [9]),Diameter of inhibition zone (Aspergillus flavus [10]) [mm],Activity [11],Activity (Klebsiella pneumoniae [12])
CCOP1(=O)C(C(=O)OC)=NN(CC)C12C(=O)c1ccccc1C2=O (stereo unspecified),7.9,1.12,8.4,9,12.2,0.85,1.18,10.3,1.31,9,0.9,1.04
CCOP1(=O)C(C#N)=NN(CC)C12C(=O)c1ccccc1C2=O (stereo unspecified),8,1.15,9,10,10,0.92,1.14,12,1,11.3,0.89,1.16
CCOC(=O)C1=NN(CC)C2(C(=O)c3ccccc3C2=O)P1(=O)OCC (stereo unspecified),7.8,1.35,7.4,8.5,11,0.88,1.23,11.3,1.42,9.6,0.78,0.8
CCn1nc(SC)oc2c3ccccc3c(=O)c1=2,5.6,0.41,4.9,5.9,5.6,0.26,1.31,5.1,0.54,6.2,0.55,0.32
CCOP(=O)(OCC)C1=NN(CC)C2(C1=O)C(=O)c1ccccc1C2=O,5.9,0.88,6.1,7.6,7.6,0.83,0.73,8.2,1.06,7.4,0.57,0.63
CCOP(=O)(OCC)C1=NN(CC)C2(C1)C(=O)c1ccccc1C2=O,9,0.62,4.3,8,9.8,0.61,0.66,7.6,0.71,5,0.84,1
CCOP1(=O)C(SC)=NN(CC)C12C(=O)c1ccccc1C2=O (stereo unspecified),9.2,1.36,8,12.8,12.6,1.16,1.14,10.5,1.32,9.8,0.92,0.81
CCOP(=O)(OCC)C1=C(N)C2(N=N1)C(=O)c1ccccc1C2=O,5.2,0.78,5.4,7.2,8.4,52,0.73,6,0.71,6.3,0.75,0.47
